According to patent publication US8906913B2, “Azabicyclohexanes” (Panacea Biotec Limited, priority 2009, dated 2014):
≈ marks a conversion by molar mass, not a printed value.

How the values were obtained:
[1] = system: Enterococcus faecalis ATCC 29212 Vancomycin Sensitive; experiment: In-vitro antibacterial activity, broth microdilution MIC; format: cell-based; settings: ATCC29212, Table 9, E. faecalis, read-out: Antimicrobial activity (in vitro MIC) ATCC 29212
Experimental: (§1) The in-vitro antibacterial activity of the compounds of the present invention (as described in Table 7) was determined by a broth microdilution following the guidelines prescribed by the Clinical and Laboratory Standards Institute (CLSI). This method is described in the CLSI Document M7-A7, Vol. 26, No. 2, “Methods for Dilution Antimicrobial Susceptibility Test for Bacteria that Grow Aerobically; Approved Standard-Seventh Edition”, which is incorporated herein by reference. Minimum Inhibitory Concentration (MIC) is defined as the minimum concentration of test compound which inhibits the growth of bacteria as visible or seen by the naked eye. This test can also be carried out by agar dilution method.
(§2) The compounds of the present invention were tested against a panel of standard microorganisms obtained from ATCC (American type culture collection). Linezolid was used as comparator in all the tests.
(§3) In the broth microdilution method, the compound was dissolved in dimethylsulfoxide and two fold serial dilutions were carried out in 96 well microtitre plates. The inoculum was prepared by adjusting the turbidity of actively growing broth culture and added to the wells to obtain a final bacterial count of ˜2-5×10^4 CFU/well. The microtitre plates were incubated at 35±2° C. for 16-20 h and then read visually.

[2] = system: Enterococcus faecium ATCC 700221 VRE (Vancomycin resistant E. faecium); experiment: as above; format: cell-based; settings: Table 9, read-out: Antimicrobial activity (in vitro MIC) ATCC 700221
Experimental: as §1, §2, §3

[3] = system: Staphylococcus aureus ATCC 29213 MSSA (Methicillin sensitive); experiment: as above; format: cell-based; settings: Table 9, S. aureus MSSA, read-out: Antimicrobial activity (in vitro MIC) ATCC 29213
Experimental: as §1, §2, §3

[4] = system: Staphylococcus aureus ATCC 33591 MRSA (Methicillin resistant); experiment: as above; format: cell-based; settings: Table 9, S. aureus MRSA, read-out: Antimicrobial activity (in vitro MIC) ATCC 33591
Experimental: as §1, §2, §3

male SWISS albino mice = experiment: Forced Swim Test; format: in vivo; settings: mice; for CNS Activity (in vivo FST) % decrease in immobility time / CNS Activity (in vivo FST) % decrease in immobility time (dose 32 mg/kg): Table 9; for CNS Activity (in vivo FST) % decrease in immobility time: footnote *: dose 64 mg/kg/p.o; for inhibition in vivo at 32 mg/kg: Mus musculus, 0.25 h, Table 8, oral, suspended in deionized water, 15 min before test, read-out: % decrease in immobility time (dose 32 mg/kg)
Experimental: This test was conducted according to the method of Porsolt et al. (Porsolt, R. D., et al., Behavioural despair in mice: A primary screening test for antidepressants. Arch. in Pharmacodyn. Ther., 229, pp 327-336 (1977)).
A test compound was suspended in deionized water, unless otherwise specified, and this suspension was orally administered to male SWISS albino mice (7 to 9 week old). 15 min later, the mice were placed in a water tank having a water depth of 15 cm and a water temperature of 25±1° C. and immediately thereafter allowed to swim for 6 min. Then, a time during which the mouse was immobile (immobility time) was measured for the last 4 min.

SMILES | MIC [1] [µg/mL] | MIC [2] [µg/mL] | MIC [3] [µg/mL] | MIC [4] [µg/mL] | CNS Activity (in vivo FST) % decrease in immobility time (male SWISS albino mice) | CNS Activity (in vivo FST) % decrease in immobility time (dose 32 mg/kg) (male SWISS albino mice) [%] | inhibition in vivo at 32 mg/kg (male SWISS albino mice) [%]
CCN1CC2CC2(c2ccc(N3CCOCC3)cc2)C1 (centres unmarked) | > 32 | > 32 | > 32 | > 32 | 81.0 ± 7.1* % |  | 
CCN1CC2CC2(c2ccc(N3CCOC3=O)cc2)C1.Cl (centres unmarked) | > 32 | > 32 | > 32 | > 32 |  | 99.2 ± 0.8 | 
CCN1CC2CC2(c2ccc(N3CCCC3)cc2)C1 (centres unmarked) [drawing 519] |  |  |  |  |  |  | 99.9 ± 0.1
CCN1CC2C(COC)C2(c2ccc(N3CCCC3)cc2)C1 (centres unmarked) [drawing 531] |  |  |  |  |  |  | 97.2 ± 1.2
CC(=O)N1CC2CC2(c2ccc(N3C[C@H](CO)OC3=O)cc2)C1 (some centres unmarked) [drawing 534] | 4 (≈ 12.6 µM) | 4 (≈ 12.6 µM) | 4 (≈ 12.6 µM) | 2 (≈ 6.32 µM) |  | 5.1 ± 1.4 | 
CCN1CC2CC2(c2ccc(N3CCCC3)cc2)C1 (centres unmarked) [drawing 535] | > 32 | > 32 | > 32 | > 32 |  | 99.9 ± 0.1 | 
c1cc(C23CNCC2C3)ccc1N1CCOCC1 (centres unmarked) [drawing 537] | > 32 | > 32 | > 32 | > 32 | 84.8* % |  | 
CCN1CC2C(COC)C2(c2ccc(N3CCCC3)cc2)C1 (centres unmarked) [drawing 538] | > 32 | > 32 | > 32 | > 32 |  | 97.2 ± 1.2 | 
